Reference: patent US9573954B2, “Pyrazolopyrimidine compounds” (University Health Network, priority 2012, dated 2017)

Assays:
[1] = system: colon cancer cells (HCT116); assay: Cancer cell line growth inhibition, Sulforhodamine B assay, HCT116; format: cell-based; conditions: Homo sapiens, HCT-116, HCT116 colon cancer cell line; read-out: Cancer Cell Line GI50 Range HCT116
Method in brief: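 HCT116 cells, 1000–4000 per well, seeded 24 h ahead, then treated 5 days with compound at 10 nM to 50 μM final in DMEM with 10% FBS. Growth measured by sulforhodamine B staining after TCA fixation, A570; GI50 from inhibition relative to DMSO-only cells.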

human TTK = molecular target: T1, human TTK (Homo sapiens, UniProt P33981); assay: TTK inhibition assay (indirect ELISA); format: biochemical; conditions: 100 μM ATP; read-out: TTK IC50 Range
T1 construct: Active TTK was purchased from Invitrogen as an amino terminal GST fusion of full length human TTK; purchased Invitrogen
T1 sequence (P33981 1-857): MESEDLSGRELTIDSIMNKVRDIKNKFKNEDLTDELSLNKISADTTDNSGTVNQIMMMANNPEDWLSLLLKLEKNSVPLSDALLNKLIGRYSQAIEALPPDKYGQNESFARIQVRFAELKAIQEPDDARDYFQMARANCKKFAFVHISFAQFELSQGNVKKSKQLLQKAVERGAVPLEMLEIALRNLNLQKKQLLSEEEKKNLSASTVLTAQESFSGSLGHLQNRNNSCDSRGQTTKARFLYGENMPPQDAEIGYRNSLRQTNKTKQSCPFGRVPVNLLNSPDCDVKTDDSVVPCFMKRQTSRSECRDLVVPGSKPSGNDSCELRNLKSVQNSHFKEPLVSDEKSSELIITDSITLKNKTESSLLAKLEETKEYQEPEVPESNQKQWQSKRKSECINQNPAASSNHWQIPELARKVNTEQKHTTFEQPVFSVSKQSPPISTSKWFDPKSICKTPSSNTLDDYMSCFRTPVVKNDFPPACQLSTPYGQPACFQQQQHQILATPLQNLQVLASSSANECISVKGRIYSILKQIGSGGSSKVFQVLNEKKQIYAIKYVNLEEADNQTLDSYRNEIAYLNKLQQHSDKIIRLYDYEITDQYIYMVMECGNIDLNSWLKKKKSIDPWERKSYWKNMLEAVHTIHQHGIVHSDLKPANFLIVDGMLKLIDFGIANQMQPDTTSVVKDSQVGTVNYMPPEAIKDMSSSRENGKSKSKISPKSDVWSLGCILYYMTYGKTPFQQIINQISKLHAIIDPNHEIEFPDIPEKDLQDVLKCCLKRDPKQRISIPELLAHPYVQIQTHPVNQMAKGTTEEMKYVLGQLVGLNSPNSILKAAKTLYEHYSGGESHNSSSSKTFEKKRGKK
Method in brief: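 Activity detected by indirect ELISA after compounds sat with full-length GST-TTK for 5 min prior to starting the reaction with ATP. IC50 came from a four-parameter logistic curve of % inhibition, calculated against background and uninhibited control wells.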

[2] = system: Ovarian 2393A tumor initiating cells; assay: Tumor-initiating cell growth inhibition, Alamar Blue assay, ovarian TICs; format: cell-based; conditions: 144 h; Ovarian 2393A TICs, 6 days; read-out: Tumor Initiating Cell GI50 Range Ovarian 2393A
Description: (§1) Non-tissue or tissue cultured treated T-75 flask and 96-well plates were purchased from VWR. Vitamin B-27 supplement, MEM NEAA (minimum essential medium non essential amino acids), sodium pyruvate, L-glutamine, N2 supplement, penicillin-streptomycin and fungizone/amphotericin B were obtained from Invitrogen. Lipid mixture, heparin and EGF were purchased from Sigma; bFGF from BD Biosciences. Tumor Initiating Cells (TICs) from colon were routinely maintained using non-tissue cultured treated T-75 flasks in DMEM:F12 medium containing 0.2XB-27 supplement, 4 ug/ml heparin, 1×MEM NEAA, 1×sodium pyruvate, 1 mM glutamine, 10 pg/ul bFGF, 20 pg/ul EGF, 1× N2 supplement, lipid mixture, penicillin-streptomycin and fungizone/amphotericin B. Ovarian TICs were routinely maintained using tissue cultured treated T-75 flasks in DMEM:F12 medium containing IXB-27 supplement, 4 ug/ml heparin, 20 pg/ul bFGF, 20 pg/ul EGF and penicillin-streptomycin.
(§2) Compounds described herein were dissolved in DMSO and further diluted in cell culture medium for GI50 determination. Colon TICs were trypsinized and seeded into non-tissue cultured treated 96-well plates with 4,000 cells/well. After 24 h, compound was added into the cell culture at different concentrations, and the final concentration of DMSO was adjusted to 0.1%. Cells were then cultured at 37° C. for 9 days. Ovarian TICs were trypsinized and seeded into tissue cultured treated 96-well plates with 1,000 cells/well. After 24 h, compound was added into the cell culture at different concentrations, and the final concentration of DMSO was adjusted to 0.1%. Cells were then cultured at 37° C. for 6 days. Cell viability was assessed by Alamar Blue assay: 10 ul of Alamar Blue was added into each well. After 4 hours incubation at 37° C., fluorescence was recorded at excitation 544 and emission 590. GI50 (Growth inhibition) was calculated using GraphPad Prism 4.0 software.
(§3) In Table 1 below, GI50 value ranges for compound examples against TICs (Colon 12 and Ovarian 2393A) are given.

[3] = system: ovarian cancer cells (OVCAR-3); assay: Cancer cell line growth inhibition, Sulforhodamine B assay, OVCAR-3; format: cell-based; conditions: Homo sapiens, OVCAR-3, OVCAR-3 ovarian cancer cell line; read-out: Cancer Cell Line GI50 Range OVCAR-3
Method in brief: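 OVCAR-3 cells were seeded 24 h before compound addition, then exposed for 5 days to final concentrations of 10 nM to 50 μM in DMEM with 10% FBS. Growth was measured by TCA fixation and sulforhodamine B staining with absorbance at 570 nm. Inhibition was relative to DMSO-only cells, and GI50 came from curve fitting.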

[4] = system: breast cancer cells (MDA-MB-468); assay: Cancer cell line growth inhibition, Sulforhodamine B assay, MDA-MB-468; format: cell-based; conditions: Homo sapiens, MDA-MB-468, MDA-MB-468 breast cancer cell line; read-out: Cancer Cell Line GI50 Range MDA-MB-468
Method in brief: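 MDA-MB-468 cells exposed 5 days to compound at final 10 nM to 50 μM in DMEM with 10% FBS. Growth measured by sulforhodamine B protein staining after TCA fixation, absorbance 570 nm; inhibition relative to DMSO-only cells, GI50 determined for cytotoxic compounds.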

[5] = system: Colon 12 tumor initiating cells; assay: Tumor-initiating cell growth inhibition, Alamar Blue assay, colon TICs; format: cell-based; conditions: 216 h; Colon 12 TICs, 9 days; read-out: Tumor Initiating Cell GI50 Range Colon 12
Description: as §1, §2, §3

Cc1cc(-c2cnn3c(NCC4CCOCC4)cc(N[C@H]4CCCC[C@H]4O)nc23)ccc1C(=O)NC1CC1 [Example C39, N-cyclopropyl-4-(5-(((1S,2R)-2-hydroxycyclohexyl)amino)-7-(((tetrahydro-2H-pyran-4-yl)methyl)amino)pyrazolo[1,5-a]pyrimidin-3-yl)-2-methylbenzamide]
GI50 [1]: ≤ 100 nM
IC50 (human TTK): < 100 nM
GI50 [2]: ≤ 100 nM
GI50 [3]: ≤ 100 nM
GI50 [4]: ≤ 100 nM
GI50 [5]: ≤ 100 nM

Cc1cc(-c2cnn3c(NCC4CCOCC4)cc(N[C@@H](C(C)C)C(C)(C)O)nc23)ccc1C(=O)NC1CC1 [Example C40, (S)-N-cyclopropyl-4-(5-((2-hydroxy-2,4-dimethylpentan-3-yl)amino)-7-(((tetrahydro-2H-pyran-4-yl)methyl)amino)pyrazolo[1,5-a]pyrimidin-3-yl)-2-methylbenzamide]
GI50 [1]: ≤ 100 nM
IC50 (human TTK): < 100 nM
GI50 [2]: 100 to 500 nM
GI50 [3]: 100 to 500 nM
GI50 [4]: ≤ 100 nM
GI50 [5]: ≤ 100 nM

Cc1cc(-c2cnn3c(NCC4CCOCC4)cc(N[C@@H](C4CC4)C(C)(C)O)nc23)ccc1C(=O)NC1CC1 [Example C41, (S)-N-cyclopropyl-4-(5-((1-cyclopropyl-2-hydroxy-2-methylpropyl)amino)-7-(((tetrahydro-2H-pyran-4-yl)methyl)amino)pyrazolo[1,5-a]pyrimidin-3-yl)-2-methylbenzamide]
GI50 [1]: ≤ 100 nM
IC50 (human TTK): < 100 nM
GI50 [2]: 100 to 500 nM
GI50 [3]: ≤ 100 nM
GI50 [4]: ≤ 100 nM
GI50 [5]: ≤ 100 nM

Cc1cc(-c2cnn3c(NCC4CC4)cc(N[C@H]4CCCC[C@H]4O)nc23)ccc1C(=O)NC1CC1 [Example C42, N-cyclopropyl-4-(7-((cyclopropylmethyl)amino)-5-(((1S,2R)-2-hydroxycyclohexyl)amino)pyrazolo[1,5-a]pyrimidin-3-yl)-2-methylbenzamide]
GI50 [1]: ≤ 100 nM
IC50 (human TTK): < 100 nM
GI50 [2]: ≤ 100 nM
GI50 [3]: ≤ 100 nM
GI50 [4]: ≤ 100 nM
GI50 [5]: ≤ 100 nM

Cc1cc(-c2cnn3c(NCC4CCOCC4)cc(NC4(CO)CCCC4)nc23)ccc1C(=O)NC1CC1 [Example C45]
GI50 [1]: ≤ 100 nM
IC50 (human TTK): < 100 nM
GI50 [2]: 100 to 500 nM
GI50 [3]: ≤ 100 nM
GI50 [4]: ≤ 100 nM
GI50 [5]: ≤ 100 nM

Cc1cc(-c2cnn3c(NCC4CCN(C)CC4)cc(Oc4cccc(F)c4)nc23)ccc1C(=O)NC1CC1 [Example C46, N-cyclopropyl-4-(5-(3-fluorophenoxy)-7-(((1-methylpiperidin-4-yl)methyl)amino)pyrazolo[1,5-a]pyrimidin-3-yl)-2-methylbenzamide]
GI50 [1]: ≤ 100 nM
IC50 (human TTK): < 100 nM
GI50 [2]: ≤ 100 nM
GI50 [3]: 100 to 500 nM
GI50 [4]: ≤ 100 nM
GI50 [5]: ≤ 100 nM

Cc1cc(-c2cnn3c(NCC4CCOCC4)cc(N[C@H]4CC[C@H](O)CC4)nc23)ccc1C(=O)NC1CC1 [Example C48]
GI50 [1]: 100 to 500 nM
IC50 (human TTK): < 100 nM
GI50 [2]: 100 to 500 nM
GI50 [3]: 100 to 500 nM
GI50 [4]: 100 to 500 nM
GI50 [5]: 100 to 500 nM

Cc1cc(-c2cnn3c(NCC4COC4)cc(Oc4cccnc4)nc23)ccc1C(=O)NC1CC1 [Example C100]
GI50 [1]: 100 to 500 nM
IC50 (human TTK): < 100 nM
GI50 [2]: ≤ 100 nM
GI50 [3]: 100 to 500 nM
GI50 [4]: 100 to 500 nM
GI50 [5]: ≤ 100 nM

Cc1cc(-c2cnn3c(NCC4CCOCC4)cc(OC4CCN(C5COC5)C4)nc23)ccc1C(=O)NC1CC1 (stereo not drawn) [Example C116]
GI50 [1]: ≤ 100 nM
IC50 (human TTK): < 100 nM
GI50 [2]: 100 to 500 nM
GI50 [3]: 100 to 500 nM
GI50 [4]: 100 to 500 nM
GI50 [5]: 100 to 500 nM

Cc1cc(-c2cnn3c(NCC4CCOCC4)cc(N[C@@H]4CCCC[C@@H]4O)nc23)ccc1C(=O)NC1CC1 [Example C118]
GI50 [1]: ≤ 100 nM
IC50 (human TTK): < 100 nM
GI50 [2]: 100 to 500 nM
GI50 [3]: 100 to 500 nM
GI50 [4]: 100 to 500 nM
GI50 [5]: 100 to 500 nM

Cc1cc(-c2cnn3c(NCC4CCOCC4)cc(N[C@H]4CCN(C5COC5)C4)nc23)ccc1C(=O)NC1CC1 [Example C120]
GI50 [1]: 100 to 500 nM
IC50 (human TTK): < 100 nM
GI50 [2]: > 500 nM
GI50 [3]: > 500 nM
GI50 [4]: 100 to 500 nM
GI50 [5]: > 500 nM

Cc1cc(-c2cnn3c(NCC4CCOCC4)cc(N[C@H](CO)CC(C)C)nc23)ccc1C(=O)NC1CC1 [Example C130]
GI50 [1]: ≤ 100 nM
IC50 (human TTK): < 100 nM
GI50 [2]: ≤ 100 nM
GI50 [3]: 100 to 500 nM
GI50 [4]: 100 to 500 nM
GI50 [5]: ≤ 100 nM

Cc1cc(-c2cnn3c(NC[C@H]4C[C@H](O)C4)cc(Oc4cccnc4)nc23)ccc1C(=O)NC1CC1 [Example C144]
GI50 [1]: ≤ 100 nM
IC50 (human TTK): < 100 nM
GI50 [2]: ≤ 100 nM
GI50 [3]: ≤ 100 nM
GI50 [4]: ≤ 100 nM
GI50 [5]: ≤ 100 nM

Cc1cc(-c2cnn3c(NC[C@H]4C[C@H](O)C4)cc(NC4CCOCC4)nc23)ccc1C(=O)NC1CC1 [Example C145]
GI50 [1]: 100 to 500 nM
IC50 (human TTK): < 100 nM
GI50 [2]: 100 to 500 nM
GI50 [3]: 100 to 500 nM
GI50 [4]: 100 to 500 nM
GI50 [5]: 100 to 500 nM

Cc1cc(-c2cnn3c(NCC4(F)CCNCC4)cc(Oc4cccc(F)c4)nc23)ccc1C(=O)NC1CC1 [Example C146]
GI50 [1]: ≤ 100 nM
IC50 (human TTK): < 100 nM
GI50 [2]: ≤ 100 nM
GI50 [3]: 100 to 500 nM
GI50 [4]: ≤ 100 nM
GI50 [5]: ≤ 100 nM

Cc1cc(-c2cnn3c(NCC4CCOCC4)cc(-c4ccncc4)nc23)ccc1C(=O)NC1CC1 [Example C150]
GI50 [1]: 100 to 500 nM
IC50 (human TTK): < 100 nM
GI50 [2]: 100 to 500 nM
GI50 [3]: 100 to 500 nM
GI50 [4]: 100 to 500 nM
GI50 [5]: 100 to 500 nM

Cc1cc(-c2cnn3c(NCC4CCOCC4)cc(N[C@H](CO)C4CCCC4)nc23)ccc1C(=O)NC1CC1 [Example C165]
GI50 [1]: ≤ 100 nM
IC50 (human TTK): < 100 nM
GI50 [2]: 100 to 500 nM
GI50 [3]: 100 to 500 nM
GI50 [4]: 100 to 500 nM
GI50 [5]: ≤ 100 nM

Cc1cc(-c2cnn3c(NC[C@H]4CC[C@@H](O)CC4)cc(Oc4cccnc4)nc23)ccc1C(=O)NC1CC1 [Example C176]
GI50 [1]: ≤ 100 nM
IC50 (human TTK): < 100 nM
GI50 [2]: ≤ 100 nM
GI50 [3]: ≤ 100 nM
GI50 [4]: ≤ 100 nM
GI50 [5]: ≤ 100 nM
